Consider ten substances from US7314864B1, “Humanin, a polypeptide suppressing neuronal death” (Keio University, priority 1999, dated 2008).

“Also recorded” adds a separate entry of the source. No end group written: not given here. Where only a bound is given, the exact number is not on record here.

For data set [1], the system named is F11 cells transfected with FAD genes (V642I APP, NL-APP, M146L PS-1, N141I PS-2). In words: FAD gene-induced F11 cell death, trypan blue exclusion assay. Conditions: for concentration giving complete antagonism/rescue of neuronal death: all four types of FAD genes; for neuroprotective activity relative to HNG: all types of cell death (FAD genes, Aβ); for suppression of FAD gene-induced cell death: 10 nM polypeptide. The format is cell-based, rat/mouse hybrid. The method, then:
(§1) F11 cells (Platika, D. et al. (1985) Proc. Natl. Acad. Sci. U.S.A. 82, 3499-3503; Yamatsuji, T. et al. (1996) Science 272, 1349-1352) were cultured in HamF-12 media containing 18% fetal bovine serum (FBS) and antibiotics. 7×10^4/well of F11 cells were seeded into a 6-well plate; cultured in HamF-12 containing 18% FBS for 12 to 16 hours; transfected 3 hours with plasmids encoding FAD genes and plasmids encoding HN (pHN, and such) by lipofection in the absence of serum (1 μg of FAD cDNA expression plasmid, 1 μg of HN cDNA expression plasmid, 4 μl of LipofectAMINE, 8 μl of Plus reagent); and then, were cultured for 2 hours in HamF-12 media containing 18% FBS. Then, culture media were exchanged with HamF-12 media containing 10% FBS; and the cells were cultured for additional 67 hours. 72 hours after transfection, cell death was measured by trypan blue exclusion assay. Experiments using synthetic HN polypeptides were conducted as follows: F11 cells (at 7×10^4/well in a 6-well plate) were transfected 3 hours with FAD genes in the absence of serum, as mentioned above; after cultivation for 2 hours in HamF-12 media containing 18% FBS, the cells were cultured for 67 hours in HamF-12 media containing 10% FBS with various concentrations of HN polypeptides; and cell death was measured by trypan blue exclusion assay. ALS-associated mutant cDNAs of SOD1 were also similarly transfected, and examined for their neurotoxicity.
(§2) Trypan blue exclusion assay was performed as follows. Without prewashing, the cells were suspended with gentle pipetting into a serum-free media. 50 μl of 0.4% trypan blue solution (Sigma, Cat. #T-8154) were added (final concentration of 0.08%) to 200 μl cell suspension, and the suspension was mixed at room temperature. Within 3 minutes of the trypan blue solution addition, stained cells were counted. Cell mortality was determined [100-cell survival rate (%)] based on the stained cell count. LDH assay was performed using a kit (LDH-Cytotoxic Test; Wako Pure Chemical Industries, Cat. #299-50601) by sampling 6 μl of media in which neurons were cultured. Calcein staining was performed as described in literature (Bozyczko-Coyne, D. et al. (1993) Journal of Neuroscience Methods 50, 205-216). Specifically, 6 μM Calcein-AM (3′, 6′-Di-(O-acetyl)-2′-7′-bis[N,N-bis(carboxymethyl)aminomethyl]fluorescein, tetraacetoxymethyl ester; Dojindo, Cat. #349-07201) was added to the neurons; and 30 minutes or longer after Calcein-AM treatment, fluorescence (ex=490 nm, em=515 nm) was observed by fluorescence microscopy, and measured by a spectrometer. Specific fluorescence was calculated by subtracting basal fluorescence from total fluorescence. Basal fluorescence was assigned to be the value calculated from linear trypan blue positivity-fluorescence intensity relationship, corresponding to 100% trypan blue positivity.

Data set [2] concerns primary cultured cortical neurons treated with Aβ1-43. In words: Aβ1-43-induced cell death of primary cultured cortical neurons, trypan blue exclusion assay. The format is cell-based. The conditions noted are these: for cell mortality: mean ±S.D.; for effect on Aβ1-43-induced cell death: 25 μM Aβ1-43, confirmed by LDH release and Calcein staining. The method, then: Primary culture of mouse cortical neurons was performed in poly-D-lysine-coated 24-well plates (Sumitomo Bakelite) in the absence of serum and in the presence of N2 supplement, as described in literature (Ecksioglu, Y. Z. et al. (1994) Brain Res. 644, 282-90). The purity of neurons prepared according to the method was >98%. The prepared neurons (1.25×10^5/well, 250 μl media/well) were preincubated in the absence or presence of 10 nM or 10 μM sHN polypeptides for 16 hours; and were treated with 25 μM Aβ1-43 in the absence or presence of sHN polypeptides at the same concentrations for 24 to 72 hours. Since primary cultured neurons are damaged even by temporary dryness during medium exchange, treatment of the cells by Aβ1-43 was performed as follows. First, half of the volume of the old medium (125 μl) was discarded. Then, 125 μl of pre-warmed fresh medium containing 50 μM Aβ1-43 and sHN with a concentration indicated above were added to the culture.
as §2

Data set [3] relates to F11 cells transfected with SOD1 mutants (A4T, G85R, G93A). The experiment in a line: ALS-associated SOD1 mutant-induced F11 cell death, trypan blue exclusion assay. The format is cell-based, rat/mouse hybrid. Conditions: 100 μM polypeptide. The procedure: as §1
Trypan blue exclusion assay was performed as follows. […] Within 3 minutes of the trypan blue solution addition, stained cells were counted. Cell mortality was determined [100-cell survival rate (%)] based on the stained cell count. […] Specifically, 6 μM Calcein-AM (3′, 6′-Di-(O-acetyl)-2′-7′-bis[N,N-bis(carboxymethyl)aminomethyl]fluorescein, tetraacetoxymethyl ester; Dojindo, Cat. #349-07201) was added to the neurons; and 30 minutes or longer after Calcein-AM treatment, fluorescence (ex=490 nm, em=515 nm) was observed by fluorescence microscopy, and measured by a spectrometer. Specific fluorescence was calculated by subtracting basal fluorescence from total fluorescence. […]

Data set [4] deals with F11/EcR cells transfected with ecdysone-inducible Q79 plasmid. In words: Polyglutamine Q79-induced F11/EcR cell death (ecdysone-inducible), trypan blue exclusion assay. The format is cell-based. Conditions: 1 μM polypeptide, 72 hours. The procedure:
F11/EcR cell experiment using ecdysone was conducted as follows: F11/EcR cells were seeded at 7×10^4/well into a 6-well plate; cultured for 12 to 16 hours in HamF-12 media containing 18% FBS; and were similarly transfected in the absence of serum for 3 hours with 1 μg of ecdysone-inducible plasmid alone, or with 1 μg of HN-encoding plasmid, as mentioned above. After culturing for 12 to 16 hours in HamF-12 media containing 18% FBS, the cells were cultured for 2 hours in HamF-12 media containing 10% FBS, then ecdysone (Ponasterone) was added to the media (final concentration of 40 μM). Cell death was measured 72 hours after ecdysone treatment. Experiments using synthetic HN polypeptides were conducted as follows: cells were similarly transfected for 3 hours with FAD genes in the absence of serum; cultured for 12 to 16 hours in HamF-12 media containing 18% FBS; cultured for 2 hours in HamF-12 media containing 10% FBS and various concentrations of HN polypeptide; and then, 40 μM Ponasterone was added to the media. Cell death was measured by trypan blue exclusion assay after 72 hours from the ecdysone treatment. HD/SCA-associated Q79 cDNAs were also similarly transfected, and the neurotoxicity was tested.
Trypan blue exclusion assay was performed as follows. […] Within 3 minutes of the trypan blue solution addition, stained cells were counted. Cell mortality was determined [100-cell survival rate (%)] based on the stained cell count. […] Specifically, 6 μM Calcein-AM (3′, 6′-Di-(O-acetyl)-2′-7′-bis[N,N-bis(carboxymethyl)aminomethyl]fluorescein, tetraacetoxymethyl ester; Dojindo, Cat. #349-07201) was added to the neurons; and 30 minutes or longer after Calcein-AM treatment, fluorescence (ex=490 nm, em=515 nm) was observed by fluorescence microscopy, and measured by a spectrometer. Specific fluorescence was calculated by subtracting basal fluorescence from total fluorescence. Basal fluorescence was assigned to be the value calculated from linear trypan blue positivity-fluorescence intensity relationship, corresponding to 100% trypan blue positivity.

Data set [5] has as its system F11 cells transfected with V642I APP cDNA. In words: V642I APP-induced F11 cell death, trypan blue exclusion assay. The format is cell-based. Conditions: for cell mortality (%): V642I APP cDNA, treated with 10 μM sHN polypeptides, mean ±S.D. The procedure:
as §1, §2

[6] abbreviates: 25 μM Aβ1-43, 72 hours, 10 nM polypeptide.

As for “AGA-HNG: HNG (S14G HN) mutated at two positions, R4A/F6A (MAPAGASCLLLLTGEIDLPVKRRA; artificially synthesized sequence (AGA-HN))”, in data set [1], the “concentration showing significant or sufficient neuroprotective action” value was “about 1 nM”, the “concentration giving complete antagonism/rescue of neuronal death” value is on record as 0.1 nM and the “neuroprotective activity relative to HNG” value is “higher rescue activity compared to HNG; also recorded: several folds higher”. For the same substance, the “concentration giving complete rescue of cell death by Aβ” value in data set [2] (25 μM Aβ1-43, 72 hours) worked out at 0.3 nM.
As to “ARGFSCLLLLTGEIDLP [SEQ ID NO: 25, ARGFSCLLLLTGEIDLP]”, the cell mortality in data set [2] (setting [6]) is 75.3±4.4%.
On to “HN-17: 17 amino acids from Pro3 to Pro19 of Humanin (PRGFSCLLLLTSEIDLP; artificially synthesized sequence (deltaN2 deltaC5-Humanin; HN-17 ))”, for which the “antagonizing activity on FAD gene-induced cell death” value in data set [1] (10 μM polypeptide, four FAD genes) was “sufficient antagonizing activity”. For the same substance, in data set [1] (M146L PS-1), the “activity to suppress cell death compared to the original HN” value was “slightly lower activity”. Further, in data set [1] (any of the four FAD genes, dose-response), the “concentration showing sufficient protective action” value is on record as “low μM”.
Consider MAPRGFSALLLLTSEIDLPVKRRA [sHNA], for which, in data set [1] (NL-APP, M146L PS-1, N141I PS-2, up to 100 μM), the “antagonism of cell death by FAD genes” value is “did not antagonize”. The “effect on SOD1 mutant-induced cell death, synthetic polypeptide” value in data set [3] was “couldn't be suppressed”. For the same substance, the “effect on Aβ1-43-induced cell death” value in data set [2] (10 μM polypeptide) is reported as “did not show any effect”. Further, the “effect on Q79-induced cell death, synthetic polypeptide” value in data set [4] is recorded as “Extensive cell death”. For the same substance, in data set [5] (72 hours), the “cell mortality (%)” value was determined as 52.5 ± 3.0%. The “suppression of V642I APP-induced cell death” value in data set [5] (concentrations up to 100 μM) is “did not significantly suppress”.
For orientation: IC50 means the concentration that inhibits the measured activity by half. Higher therefore signals weaker potency. MAPRGFSCLLLLTGEIDLPVKRRA [sHNG]: in data set [1], the “concentration showing significant or sufficient neuroprotective action” value is given as “about 1 nM” and the “concentration giving complete antagonism/rescue of neuronal death” value is not above 10 nM. The “concentration giving complete suppression of cell death” value in data set [1] (NL-APP, M146L PS-1, N141I PS-2) is not above 10 nM. For the same substance, the “effect on SOD1 mutant-induced cell death, synthetic polypeptide” value in data set [3] is on record as “couldn't be suppressed”. In addition, in data set [2] (10 nM polypeptide), the “effect on Aβ1-43-induced cell death” value is “completely protected”. Besides, in data set [4], the “effect on Q79-induced cell death, synthetic polypeptide” value is “Extensive cell death”. Further, in data set [5] (72 h), the IC50 was approximately 0.1 nM. The “concentration giving complete antagonizing effect on V642I APP-induced cell death” value in data set [5] (synthetic polypeptide, 72 hours) was not above 10 nM.
In the case of MAPRGFSCRLLLTSEIDLPVKRRA [sHNR], the “cell mortality (%)” value in data set [5] (72 hours) stood at 17.7 ± 2.2 %.
As to PRGFSCLLLLTGEIDLP [HNG-17], in data set [1], the “suppression of FAD gene-induced cell death” value was “completely antagonize”. This substance had a cell mortality in data set [2] (setting [6]) of 28.8±2.3%. Also, the “effect on Aβ1-43-induced cell death” value in data set [2] (10 nM polypeptide) is recorded as “completely antagonize”.
Turning to “SEQ ID NO: 46: HNG with Cys at position 8 substituted with His (MAPRGFSHLLLLTGEIDLPVKRRA)”, in data set [1], the “suppression of FAD gene-induced cell death” value is recorded as “inhibited neuronal death” and the “neuroprotective activity relative to HNG” value was “slight decrease in the cell death suppression activity”. In addition, in data set [2] (10 nM polypeptide), the “effect on Aβ1-43-induced cell death” value is given as “suppressed cell death”. Further, in data set [5] (10 nM polypeptide), the “suppression of V642I APP-induced cell death” value is “significant suppression activity”.
The like results for “SEQ ID NO: 48: HNG with Cys at position 8 substituted with Lys (MAPRGFSKLLLLTGEIDLPVKRRA)” were, in that order, “inhibited neuronal death”, “comparable to the original HNG polypeptide”, “suppressed cell death” and “significant suppression activity”.
With “SEQ ID NO: 54: HNG with Cys at position 8 substituted with Arg (MAPRGFSRLLLLTGEIDLPVKRRA)”, in data set [1], the “suppression of FAD gene-induced cell death” value is “inhibited neuronal death” and the “neuroprotective activity relative to HNG” value is “comparable to the original HNG polypeptide”. For the same substance, the “effect on Aβ1-43-induced cell death” value in data set [2] (10 nM polypeptide) is “suppressed cell death”. The “suppression of V642I APP-induced cell death” value in data set [5] (10 nM polypeptide) is recorded as “significant suppression activity”.
